Measured values published in article PMC5555199, “Mechanism of pathogen recognition by human dectin-2” (The Journal of Biological Chemistry, 2017).

Molecular target: T1, untagged form of the CRD (human dectin-2) (Homo sapiens, UniProt Q6EIG7)
T1 construct: gene CLEC6A; extended C-type carbohydrate-recognition domain starting at Leu-64, preceded by Met-Ala; untagged; one monomer in the asymmetric unit
T1 sequence (Q6EIG7 64-209): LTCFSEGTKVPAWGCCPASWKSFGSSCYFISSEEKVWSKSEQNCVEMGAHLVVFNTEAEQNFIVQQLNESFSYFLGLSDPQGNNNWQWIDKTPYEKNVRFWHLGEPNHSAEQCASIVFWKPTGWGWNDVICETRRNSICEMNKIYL
Experiment: X-ray crystallography, […] Å
Type: binding
Settings: pH 8.0, Ca2+; primary Ca2+ site plus adjacent secondary site; D1 and D2 branches at 50% occupancy each

CC(=O)N[C@H]1[C@H](O[C@H]2[C@H](O)[C@@H](NC(C)=O)C(O)O[C@@H]2CO)O[C@H](CO)[C@@H](O[C@@H]2O[C@H](CO[C@H]3O[C@H](CO[C@H]4O[C@H](CO)[C@@H](O)[C@H](O)[C@@H]4O[C@H]4O[C@H](CO)[C@@H](O)[C@H](O)[C@@H]4O)[C@@H](O)[C@H](O[C@H]4O[C@H](CO)[C@@H](O)[C@H](O)[C@@H]4O[C@H]4O[C@H](CO)[C@@H](O)[C@H](O)[C@@H]4O)[C@@H]3O)[C@@H](O)[C@H](O[C@H]3O[C@H](CO)[C@@H](O)[C@H](O)[C@@H]3O[C@H]3O[C@H](CO)[C@@H](O)[C@H](O)[C@@H]3O[C@H]3O[C@H](CO)[C@@H](O)[C@H](O)[C@@H]3O)[C@@H]2O)[C@@H]1O (stereo partly shown) [Man9GlcNAc2]
X-ray crystallography, 2.4 Å: crystals obtained with the untagged form of the CRD in combination with Man9GlcNAc2 oligosaccharide
